Results from US7732440B2, “Phenothiazin derivatives, method for the production thereof and use thereof as pharmaceuticals” (Sanofi-Aventis, priority 2007, dated 2010).

Biological target: T1, Human glucokinase (Homo sapiens, UniProt P35557)
T1 construct: the glucokinase polypeptide beginning with Ser-6 is obtained; GST (N, cleaved yes); made in house; host or cells: E. coli BL21
T1 sequence (P35557 6-464 isoform P35557-3 limits assumed): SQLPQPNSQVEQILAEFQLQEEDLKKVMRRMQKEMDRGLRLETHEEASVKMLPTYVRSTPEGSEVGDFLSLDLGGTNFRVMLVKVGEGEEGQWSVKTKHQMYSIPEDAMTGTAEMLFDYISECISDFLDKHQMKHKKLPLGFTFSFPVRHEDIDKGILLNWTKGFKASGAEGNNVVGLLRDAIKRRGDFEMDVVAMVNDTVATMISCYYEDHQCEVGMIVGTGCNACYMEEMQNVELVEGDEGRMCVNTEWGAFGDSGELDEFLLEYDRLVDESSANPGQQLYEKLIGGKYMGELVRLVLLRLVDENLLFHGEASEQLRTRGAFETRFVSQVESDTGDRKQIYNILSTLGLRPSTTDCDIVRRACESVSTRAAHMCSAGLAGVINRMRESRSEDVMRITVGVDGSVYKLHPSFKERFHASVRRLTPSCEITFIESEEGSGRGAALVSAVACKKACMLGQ
Test: Enzymatic test of glucokinase activators (coupled optical test)
Type: biochemical
Conditions: 5 mM glucose; for Concentration raising glucokinase activity by 50% (EC150): concentration of test compound which increases the enzymatic activity by 50% (0 μM = 100%), 25° C., 1 mM ATP, pH 7; for Fold induction: maximum fold stimulation: highest change in extinction in the concentration range 0.1-100 μM relative to change without test substance
Description: Enzymatic Test of Glucokinase Activators
Human glucokinase is expressed as a fusion protein with glutathione S-transferase (GST) in E. coli BI21 and purified by affinity chromatography. […] is cleaved off by digestion with factor Xa, and the glucokinase polypeptide beginning with Ser-6 is obtained. The latter is purified chromatographically. At room temperature, a typical glucokinase preparation has a specific activity of 30 U/mg protein.
The activity of glucokinase and the effect of compounds on this activity are determined by a coupled optical test at 25° C. The test volume is 100 μl. The test composition is: 25 mM HEPES/NaOH (Merck; #110110) pH 7, 25 mM KCl (Merck; #04933), 2 mM MgCl2 (Merck; #05833), 1 mM dithiothreitol (Merck; #112013), 1 mM NAD (Sigma; #N1511), 5 mM glucose (Merck; #108337), 1 mM ATP (Sigma; #A2383), 0.1% (w/v) bovine serum albumin (Merck; #112018), 0.002 U glucokinase preparation and 3.2 U glucose 6-phosphate dehydrogenase (Sigma; #G8529). The mixture furthermore contains a test compound. The test compounds are in each case dissolved in 10 mM DMSO and are tested at final concentrations of 0 μM, 0.1 μM, 0.3 μM, 1 μM, 3 μM, 10 μM, 30 μM and 100 μM. The final concentration of DMSO in the test is 1% (v/v). The reaction is started by addition of ATP. The absorption of the mixture at 340 nm is determined immediately after the addition of ATP and then 25 min later using a multiwell plate photometer (from Labsystems, Multiskan Ascent). The change of the absorption during this period is calculated.
The crude data of the changes in extinction are transferred into a Microsoft Excel file. The value for 0 μM test compound is assigned to be 100%. Dose/activity curves are calculated using the program XL.Fit according to the instructions of the manufacturer (IDBS). The concentration of a test compound which increases the enzymatic activity by 50% is defined as EC150. The maximum fold stimulation corresponds to the ratio of the highest change in extinction in the concentration range of a test compound to the change of the absorption without test substance.

Row | Compound | Concentration raising glucokinase activity by 50% (EC150) [nM] | Fold induction
1 | CN1c2ccccc2S(=O)(=O)c2ccc(C(CC3CCOCC3)C(=O)Nc3nccs3)cc21 (centres unmarked) [Example 1, 2-(10-Methyl-5,5-dioxo-5,10-dihydrophenothiazin-2-yl)-3-(tetrahydropyran-4-yl)-N-thiazol-2-ylpropionamide] | 4200 | 2.0
2 | Cc1ccc(NC(=O)C(CC2CCOCC2)c2ccc3c(c2)N(C)c2ccccc2S3(=O)=O)nn1 (centres unmarked) [Example 6, 2-(10-Methyl-5,5-dioxo-5,10-dihydrophenothiazin-2-yl)-N-(6-methylpyridazin-3-yl)-3-(tetrahydropyran-4-yl)propionamide] | 15500 | 2.1
3 | CN1c2ccccc2S(=O)(=O)c2ccc(C(CC3CCCC3)C(=O)Nc3nccs3)cc21 (centres unmarked) [Example 9, 3-Cyclopentyl-2-(10-methyl-5,5-dioxo-5,10-dihydrophenothiazin-2-yl)-N-thiazol-2-yl-propionamide] | 2200 | 2.8
4 | COc1ccc2nc(NC(=O)C(CC3CCOCC3)c3ccc4c(c3)N(C)c3ccccc3S4(=O)=O)sc2n1 (centres unmarked) [Example 15, N-(5-Methoxy-thiazolo[5,4-b]pyridin-2-yl)-2-(10-methyl-5,5-dioxo-5,10-dihydrophenothiazin-2-yl)-3-(tetrahydropyran-4-yl)propionamide] | 900 | 5.0
5 | COc1ccc2nc(NC(=O)C(C[C@H]3CCC(=O)C3)c3ccc4c(c3)N(C)c3ccccc3S4(=O)=O)sc2n1 (stereo partly drawn) [Example 41, N-(5-Methoxythiazolo[5,4-b]pyridin-2-yl)-2-(10-methyl-5,5-dioxo-5,10-dihydrophenothiazin-2-yl)-3-((R)-3-oxocyclopentyl)propionamide] | 700 | 3.9
6 | Cn1ccc(NC(=O)C(CC2CC=C(F)CC2)c2ccc3c(c2)Nc2ccccc2S3(=O)=O)n1 (centres unmarked) [Example 54, 2-(5,5-Dioxo-5,10-dihydrophenothiazin-2-yl)-3-(4-fluorocyclohex-3-enyl)-N-(1-methyl-1H-pyrazol-3-yl)propionamide] | 1000 | 4.5

Next, values leading:

Row | Concentration raising glucokinase activity by 50% (EC150) [nM] | Fold induction | Compound
7 | 2100 | 4.4 | CN1c2ccccc2S(=O)(=O)c2ccc(C(CC3CCOCC3)C(=O)Nc3ccn(C)n3)cc21 (centres unmarked) [Example 5, 2-(10-Methyl-5,5-dioxo-5,10-dihydrophenothiazin-2-yl)-N-(1-methyl-1H-pyrazol-3-yl)-3-(tetrahydropyran-4-yl)propionamide]
8 | 500 | 4.0 | CN1c2ccccc2S(=O)(=O)c2ccc(C(CC3CCC(=O)CC3)C(=O)Nc3ccn(C)n3)cc21 (centres unmarked) [Example 36, 2-(10-Methyl-5,5-dioxo-5,10-dihydrophenothiazin-2-yl)-N-(1-methyl-1H-pyrazol-3-yl)-3-(4-oxocyclohexyl)propionamide]
9 | 1200 | 3.6 | CCOC(=O)c1ccc2c(c1)S(=O)(=O)c1ccc(C(CC3CCC(=O)C3)C(=O)Nc3ccn(C)n3)cc1N2C (centres unmarked) [Example 42, Ethyl 10-methyl-8-[1-(1-methyl-1H-pyrazol-3-ylcarbamoyl)-2-(3-oxocyclopentyl)-ethyl]-5,5-dioxo-5,10-dihydrophenothiazine-3-carboxylate]
10 | 600 | 5.0 | Cn1ccc(NC(=O)C(C[C@H]2CCC(=O)C2)c2ccc3c(c2)Nc2ccccc2S3(=O)=O)n1 (stereo partly drawn) [Example 46, 2-(5,5-Dioxo-5,10-dihydrophenothiazin-2-yl)-N-(1-methyl-1H-pyrazol-3-yl)-3-((R)-3-oxocyclopentyl)propionamide]
